“Also recorded” adds a separate entry of the source. Where two headings read alike, the source gives them in different places.
Key:
17β-HSD3 = target: T1, 17β-HSD3 (Homo sapiens, UniProt P37058); assay: Assay for 17β-HSD3 activity (TLC assay) in 293-EBNA cells stably transfected with 17β-HSD3; type: cell-based; settings: for inhibition at 10 µM: 293-EBNA
T1 construct: expressed in transfected cells; host or cells: human 293-EBNA cells, stably transfected
T1 sequence (P37058 1-310): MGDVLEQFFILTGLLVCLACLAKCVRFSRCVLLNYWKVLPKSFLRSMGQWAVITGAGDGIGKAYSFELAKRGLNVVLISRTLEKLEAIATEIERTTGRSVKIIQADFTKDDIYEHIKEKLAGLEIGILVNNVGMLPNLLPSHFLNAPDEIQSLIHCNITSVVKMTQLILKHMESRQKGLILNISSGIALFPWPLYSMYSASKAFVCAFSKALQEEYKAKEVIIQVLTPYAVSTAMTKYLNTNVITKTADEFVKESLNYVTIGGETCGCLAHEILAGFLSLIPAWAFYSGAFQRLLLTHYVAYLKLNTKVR
Method: Human 293-EBNA cells stably transfected with 17β-HSD3 were plated at 50,000 cells/well in 24 well plates in complete growth medium. After 48 h 2–3 nM [^3H]-androstenedione in assay medium (500 mL DMEM medium with 5 mL 100 × L-glutamine and 5 mL 7.5% sodium bicarbonate solution) was added with or without test compound at 1.5 mL/well (triplicate), and the cells incubated at 37 °C. Two hours later 1 mL medium was removed from each well and placed in a 125 × 16 mm glass test tube containing 25 µL of recovery solution (5000 dpm ^14C-testosterone and 25 µg unlabelled testosterone […], and the tubes vortexed at high speed for 2 × 30 s. After the samples had settled into two phases, they were snap-frozen in a dry ice/methanol bath. The upper organic phase was decanted into 75 × 12 mm tubes and evaporated to dryness under an airstream using a sample concentrator (TECHNE) at 40 °C. The samples were resuspended in ether (8 drops, then a further 3), spotted onto ca 60 F254 20 cm × 20 cm TLC plates and separated using a 4:1 v/v dichloromethane: ethyl acetate mobile phase. After drying the plates, the major spots were marked under a UV lamp, cut out and placed in individual scintillation vials containing 0.5 mL methanol. These were then shaken lightly and allowed to stand for 15 min before adding 10 mL of EcoScintA (scintillation fluid) to each tube along with 0.5 mL assay medium and counted in a scintillation spectrometer (Beckman, High Wycombe, Bucks, UK), using a program for duel [^3H/^14C] isotopes. The number of cells/well was then counted using a Coulter10 counter (Beckman). The inhibitory activity of the test compounds was then assessed by calculating the amount of product formed correcting for crossover between isotope counts, recovery, dilution and non-enzymatic degradation fmol/hr/million cells) with and without inhibitor (% inhibition).

[1] = Compound toxicity, MTS/Alamar Blue proliferation assay, LNCaP; type: cell-based; settings: human, LNCaP (AR+) prostate cancer cells; read-out: Cytotoxicity IC50 (µM) LNCaP (AR+)
Method: (§1) AR+ (LNCaP) and AR- (PC-3) PCa cell lines were used as standard lines to determine the cytotoxicity of HSD3 inhibitor compounds. Toxicity was assessed over 96 h in 96 well plates using the standard MTS/Alamar Blue proliferation assay and over longer durations by cell counting methodologies.

[2] = Compound toxicity, MTS/Alamar Blue proliferation assay, PC-3; type: cell-based; settings: human, PC-3 (AR-) prostate cancer cells; PC3 (AR-); read-out: Cytotoxicity IC50 (µM) PC3 (AR-)
Method: as §1

[3] = 10 μM, TLC assay, mean of at least two measurements, typically SD ±5%
[4] = TLC assay, 293-EBNA[HSD3] cells, read-out: IC50 (17β-HSD3)

melting point	inhibition at 10 µM (17β-HSD3; [3])	17β-HSD3 inhibitory activity in words (17β-HSD3)	Compound	further results
–	60 to 70%	weakly active	CC(=O)N(C)c1ccccc1CN(C)c1ccccc1Oc1ccc(Cl)cc1 [Compound 15, N-[2-(([2-(4-Chloro-phenoxy)-phenyl]-methyl-amino)-methyl)-phenyl]-N-methyl-acetamide]	–
–	< 20%	inactive	CC(=O)Nc1ccccc1CN(C)c1ccccc1Oc1ccc(Cl)cc1 [Compound 16, N-[2-(([2-(4-Chloro-phenoxy)-phenyl]-methyl-amino)-methyl)-phenyl]-acetamide]	–
–	< 20%	inactive	CC(=O)Nc1ccccc1CN(C(C)=O)c1ccccc1Oc1ccc(Cl)cc1 [Compound 17, N-(2-Acetylamino-benzyl)-N-[2-(4-chloro-phenoxy)-phenyl]-acetamide]	–
137 to 139 °C	29%	–	CC(=O)Nc1ccc(CNc2ccccc2Oc2ccc(Cl)cc2)cc1 [Compound 18, N-(4-([2-(4-Chloro-phenoxy)-phenylamino]-methyl)-phenyl)-acetamide]	–
–	< 20%	inactive	CC(=O)Nc1ccc(CNc2ccccc2Oc2ccc(Cl)cc2Cl)cc1 [Compound 19, N-(4-([2-(2,4-Dichloro-phenoxy)-phenylamino]-methyl)-phenyl)-acetamide]	–
187 to 190 °C	53%	–	CC(=O)Nc1cccc(CNc2ccccc2Oc2ccc(Cl)cc2)c1 [Compound 20, N-(3-[2-(4-Chloro-phenoxy)-phenylamino]-methyl-phenyl)-acetamide]	–
–	55%	–	CC(=O)N1CCC(Nc2ccccc2CN(C(C)=O)c2ccccc2Oc2ccc(Cl)cc2)CC1 [Compound 22, N-[2-(1-Acetyl-piperidin-4-ylamino)-benzyl]-N-[2-(4-chloro-phenoxy)-phenyl]-acetamide]	–
–	97%	–	CC(=O)N1CCC(C(=O)Nc2cccc(CNc3ccccc3Oc3ccc(Cl)cc3)c2)CC1 [Compound 24, 1-Acetyl-piperidine-4-carboxylic acid (3-[2-(4-chloro-phenoxy)-phenylamino]-methyl-phenyl)-amide]	IC50 (17β-HSD3; [4]): 1100 nM
–	20 to 60%	–	CCNc1ccccc1C(C)Nc1ccccc1Oc1ccc(Cl)cc1 (stereo not shown) [Compound 25, N-(2–1-[2-(4-Chloro-phenoxy)-phenylamino]-ethyl-phenyl)-ethylamine]	–
–	20 to 60%	–	C=CCC(Nc1ccccc1Oc1ccc(Cl)cc1)c1ccccc1NC(C)=O (stereo not shown) [Compound 26]	IC50 (17β-HSD3; [4]): 520 nM
–	< 20%	–	CC(=O)Nc1ccccc1C(Cc1ccccc1)Nc1ccccc1Oc1ccc(Cl)cc1 (stereo not shown) [Compound 27, N-(2-(1-[2-(4-Chloro-phenoxy)-phenylamino]-2-phenyl-ethyl)-phenyl)-acetamide]	–
139 to 141 °C	–	active	C=CC[C@H](Nc1ccccc1Oc1ccc(Cl)cc1)c1ccccc1NC(C)=O [Compound 32, S-(+)-N-(2-(1-[2-(4-Chloro-phenoxy)-phenylamino]-but-2-enyl)-phenyl)-acetamide]	IC50 (17β-HSD3; [4]): 370 nM

More lines, now with the values behind:

Compound	melting point	inhibition at 10 µM (17β-HSD3; [3])	17β-HSD3 inhibitory activity in words (17β-HSD3)	further results
1-[4-(2-[2-(4-Chloro-phenoxy)-phenylamino]-methyl-phenylamino)-piperidin-1-yl]-ethanone [Compound 21]	–	–	–	% Inhibition at 10 μM (17β-HSD3) (17β-HSD3; [3]): 36%
CC(=O)N1Cc2ccccc2CSc2ccccc21 [BMS Dibenzazocine]	–	–	–	IC50 at 96 h [1]: 19.4 µM; IC50 (17β-HSD3; Table 11, read-out: HSD3 Activity (IC50 nM)): 8.6 nM; IC50 at 96 h [2]: > 50 µM
CC(=O)Nc1ccccc1CNc1ccccc1Oc1ccc(OC(F)(F)F)cc1 [Compound 2, N-(2-([2-(4-Trifluoromethoxy-phenoxy)-phenylamino]-methyl)-phenyl)-acetamide]	98 to 100 °C	60 to 70%	–	–
CC(=O)Nc1ccccc1CNc1cc(F)ccc1Oc1ccc(Cl)cc1 [Compound 3, N-(2-([2-(4-Chloro-phenoxy)-5′-fluoro-phenylamino]-methyl)-phenyl)-acetamide]	178 to 180 °C	60 to 70%	–	–
CC(=O)Nc1cc2c(cc1CNc1ccccc1Oc1ccc(Cl)cc1)OCO2 [Compound 4, N-(6-[2-(4-Chloro-phenoxy)-phenylamino]-methyl-benzo[1,3]dioxol-5-yl)-acetamide]	154 to 156 °C	86%	good activity; also recorded: active	IC50 (17β-HSD3; [4]): 450 nM
COc1cc(CNc2ccccc2Oc2ccc(Cl)cc2)c(NC(C)=O)cc1OC [Compound 5, N-(2-[2-(4-Chloro-phenoxy)-phenylamino]-methyl-4,5-dimethoxy-phenyl)-acetamide]	117 to 118 °C	< 20%	activity was lost; also recorded: inactive	–
COc1cc(CNc2ccccc2Oc2ccc(Cl)cc2Cl)c(NC(C)=O)cc1OC [Compound 6, N-(2-([2-(2,4-Dichloro-phenoxy)-phenylamino]-methyl)-4,5-dimethoxy-phenyl)-acetamide]	128 to 131 °C	< 20%	activity was lost; also recorded: inactive	–
CC(=O)Nc1c(CNc2ccccc2Oc2ccc(Cl)cc2)ccc2ccccc12 [Compound 7, N-(2-[2-(4-Chloro-phenoxy)-phenylamino]-methyl-naphthalen-1-yl)-acetamide]	153 to 155 °C	< 20%	–	–
CC(=O)Nc1ccc(C)cc1CNc1ccccc1Oc1ccc(Cl)cc1 [Compound 8, N-(2-[2-(4-Chloro-phenoxy)-phenylamino]-methyl-4-methyl-phenyl)-acetamide]	138 to 140 °C	60 to 70%	–	–
CC(=O)Nc1ccc(Cl)cc1CNc1ccccc1Oc1ccc(Cl)cc1 [Compound 9, N-(4-Chloro-2-[2-(4-chloro-phenoxy)-phenylamino]-methyl-phenyl)-acetamide]	–	97%	–	IC50 (17β-HSD3; [4]): 1900 nM
CC(=O)Nc1ccc(Cl)cc1CNc1ccccc1Oc1ccc(Cl)cc1Cl [Compound 10, N-(4-Chloro-2-[2-(2,4-dichloro-phenoxy)-phenylamino]-methyl-phenyl)-acetamide]	135 to 137 °C	< 20%	–	–
CC(=O)Nc1ccc(Cl)cc1CNc1ccccc1Oc1ccc(OC(F)(F)F)cc1 [Compound 11, N-(4-Chloro-2-[2-(4-trifluoromethoxy-phenoxy)-phenylamino]-methyl-phenyl)-acetamide]	121 to 123 °C	–	good activity	–
CC(=O)N(C)c1ccccc1CNc1ccccc1Oc1ccc(Cl)cc1 [Compound 14, N-(2-([2-(4-Chloro-phenoxy)-phenylamino]-methyl)-phenyl)-N-methyl-acetamide]	–	–	–	IC50 (17β-HSD3; [4]): 460 nM
CCCC(Nc1ccccc1Oc1ccc(Cl)cc1)c1ccccc1NC(C)=O (stereo not shown) [Compound 28, N-(2-(1-[2-(4-Chloro-phenoxy)-phenylamino]-butyl)-phenyl)-acetamide]	–	–	–	IC50 (17β-HSD3; [4]): 370 nM
CC(=O)Nc1ccccc1C(C)Nc1ccccc1Oc1ccc(Cl)cc1 (stereo not shown) [Compound 29, N-(2-(1-[2-(4-Chloro-phenoxy)-phenylamino]-ethyl)-phenyl)-acetamide]	–	–	–	IC50 at 96 h [1]: 14.6 µM; IC50 (17β-HSD3; [4]): 76 nM; IC50 at 96 h [2]: 18.3 µM

— PMC8659031, “Substituted Aryl Benzylamines as Potent and Selective Inhibitors of 17β-Hydroxysteroid Dehydrogenase Type 3” (Molecules, 2021)
